PMC11420952, “A Chemical Approach to Assess the Impact of Post-translational Modification on MHC Peptide Binding and Effector Cell Engagement” (ACS Chemical Biology, 2024)
Where no end group is shown, it is not given here.

Target: T1, H-2K^b (Mus musculus, UniProt P01901)
T1 construct: endogenous in cells; host or cells: RMA-S cells (TAP-deficient)
T1 sequence (P01901 22-369): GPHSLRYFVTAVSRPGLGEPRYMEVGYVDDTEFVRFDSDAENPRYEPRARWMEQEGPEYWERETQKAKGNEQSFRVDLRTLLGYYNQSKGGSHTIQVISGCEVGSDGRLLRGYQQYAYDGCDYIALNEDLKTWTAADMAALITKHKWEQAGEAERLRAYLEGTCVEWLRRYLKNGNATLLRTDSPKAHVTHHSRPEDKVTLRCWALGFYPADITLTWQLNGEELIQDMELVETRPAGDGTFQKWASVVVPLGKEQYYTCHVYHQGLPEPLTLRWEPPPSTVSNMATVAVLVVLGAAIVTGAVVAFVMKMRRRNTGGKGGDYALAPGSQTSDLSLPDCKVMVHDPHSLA
T1 sequence (P01887 21-119 partner): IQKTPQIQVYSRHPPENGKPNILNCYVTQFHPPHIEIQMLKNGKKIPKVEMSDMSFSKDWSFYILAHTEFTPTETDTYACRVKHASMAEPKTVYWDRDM
Test: cell-based
Conditions: sarsWT concentration scan; 1 h 26 °C then 6 h 37 °C; APC anti-mouse H-2K^b antibody, flow cytometry; Figure S2, mean ± SD n = 3; read-out: EC50 of pMHC stabilization on RMA-S cells

## ESIVRFPNI [sarsWT]
  EC50: 1700 nM
